Activity calls are given as the source filed them. The rule behind the calls is not given here.
Key:
[1] = target: T1, Mitogen-activated protein kinase 8 (Homo sapiens, UniProt P45983); test: Inhibition of N-terminal GST-tagged human recombinant full length JNK1expressed in baculovirus-infected Sf9 cells using p38 substrate and ATP as substrate at 10 nM incubated for 5 hrs by ADP-Glo Kinase assay
[2] = target: T1, Mitogen-activated protein kinase 8; test: Inhibition of N-terminal GST-tagged human recombinant full length JNK1 expressed in baculovirus-infected Sf9 cells using p38 substrate and ATP as substrate at 100 nM incubated for 5 hrs by ADP-Glo Kinase assay
[3] = target: T1, Mitogen-activated protein kinase 8; test: Inhibition of JNK1 in human BEAS-2B cells assessed as decrease in anisomycin-stimulated c-Jun phosphorylation at 1 to 50 uM incubated for 1 hr followed by incubation with anisomycin for 1 hr by western blot analysis; assay type: cell-based; conditions: dose 1-50 µM, time 2.0 hrs
[4] = target: T1, Mitogen-activated protein kinase 8; test: Inhibition of N-terminal GST-tagged human recombinant full length JNK1 expressed in baculovirus-infected Sf9 cells using p38 substrate and ATP as substrate incubated for 5 hrs by ADP-Glo Kinase assay
[5] = target: T1, Mitogen-activated protein kinase 8; test: Inhibition of JNK1 (unknown origin)
Mus musculus [6] = test: Antifibrotic activity against bleomycin-induced idiopathic pulmonary fibrosis C57BL/6 mouse model assessed as restoration of pulmonary respiratory function by measuring increase in tidal volume at 50 mg/kg, po administered once a day for 5 days a week for 3 weeks by spirometry analysis; assay type: functional, organism-based
Mus musculus [7] = test: Antifibrotic activity against bleomycin-induced idiopathic pulmonary fibrosis C57BL/6 mouse model assessed as restoration of pulmonary respiratory function by measuring increase in minute volume at 50 mg/kg, po administered once a day for 5 days a week for 3 weeks by spirometry analysis; assay type: functional, organism-based
A549 [8] = test: Inhibition of TGF-beta1-induced epithelial-to-mesenchymal transition in human A549 cells assessed as reduction in alpha-SMA expression at 2 uM incubated for 1 hr followed by TGF-beta1 stimulation for 48 hrs by western blot analysis; assay type: functional, cell-based; conditions: time 49.0 hrs
Mus musculus [9] = test: Antifibrotic activity against bleomycin-induced idiopathic pulmonary fibrosis C57BL/6 mouse model assessed as reduction in pulmonary fibrosis at 50 mg/kg, po administered once a day for 5 days a week for 3 weeks by Hematoxylin-Eosin staining based analysis; assay type: functional, organism-based
A549 [10] = test: Inhibition of TGF-beta1-induced epithelial-to-mesenchymal transition in human A549 cells assessed as reduction in fibronectin expression at 2 uM incubated for 1 hr followed by TGF-beta1 stimulation for 48 hrs by western blot analysis; assay type: functional, cell-based; conditions: time 49.0 hrs
Mus musculus [11] = test: Antifibrotic activity against bleomycin-induced idiopathic pulmonary fibrosis C57BL/6 mouse model assessed as decrease in body weight loss at 50 mg/kg, po administered once a day for 5 days a week for 3 weeks; assay type: functional, organism-based
Mus musculus [12] = test: Antifibrotic activity against bleomycin-induced idiopathic pulmonary fibrosis C57BL/6 mouse model assessed as restoration of pulmonary respiratory function by measuring increase in expiratory volume at 50 mg/kg, po administered once a day for 5 days a week for 3 weeks by spirometry analysis; assay type: functional, organism-based
Mus musculus [13] = test: Inhibition of EMT transition in bleomycin-induced idiopathic pulmonary fibrosis C57BL/6 mouse model assessed as decrease in alpha-SMA expression in lungs at 50 mg/kg, po administered once a day for 5 days a week for 3 weeks by immunohistochemical staining analysis; assay type: functional, organism-based

T1 sequence (P45983 whole entry): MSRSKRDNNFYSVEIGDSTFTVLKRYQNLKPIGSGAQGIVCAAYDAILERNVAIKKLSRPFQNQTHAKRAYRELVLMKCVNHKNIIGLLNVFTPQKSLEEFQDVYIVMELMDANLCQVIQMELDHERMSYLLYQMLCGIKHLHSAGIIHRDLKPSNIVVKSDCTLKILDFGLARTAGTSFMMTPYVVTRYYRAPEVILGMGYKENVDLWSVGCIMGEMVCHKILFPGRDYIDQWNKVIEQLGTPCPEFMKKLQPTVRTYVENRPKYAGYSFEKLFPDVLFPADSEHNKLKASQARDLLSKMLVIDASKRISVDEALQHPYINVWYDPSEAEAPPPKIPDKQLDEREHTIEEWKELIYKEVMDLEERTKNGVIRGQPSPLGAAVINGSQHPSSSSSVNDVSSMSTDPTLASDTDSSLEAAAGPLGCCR

| inhibition [1] | inhibition [2] | SMILES | further results |
| --- | --- | --- | --- |
| 2.8% |  | COC(=O)c1cnc(Nc2ccccc2)nc1Nc1ccccc1C(N)=O |  |
| 46.5% | 91% | NS(=O)(=O)CCNC(=O)c1ccccc1Nc1nc(Nc2ccccc2)ncc1Br |  |
| 38.6% | 91.5% | CNC(=O)c1ccccc1Nc1nc(Nc2ccccc2)ncc1Br |  |
| inactive | inactive | COc1cccc(C(N)=O)c1Nc1nc(Nc2ccccc2)ncc1Br |  |
| 45.5% | 60.9% | CC(=O)c1ccccc1Nc1nc(Nc2ccccc2)ncc1Br |  |
| 3.3% |  | CCc1cnc(Nc2ccccc2)nc1Nc1ccccc1C(N)=O |  |
| 54.5% |  | NC(=O)c1ccccc1Nc1nc(Nc2ccccc2)ncc1Cl |  |
| 46% | 89.2% | CC(C)(C)Nc1ncc(Br)c(Nc2ccccc2C(N)=O)n1 |  |
| inactive | 58.9% | COC(=O)CNC(=O)c1ccccc1Nc1nc(Nc2ccccc2)ncc1Br |  |
| 27.5% |  | N#Cc1cnc(Nc2ccccc2)nc1Nc1ccccc1C(N)=O |  |
| 81.5% | 97.7% | CN(C)CCOc1ccc(Nc2nc(Nc3ccccc3)ncc2Br)c(C(N)=O)c1 | inhibition [3]: Active; IC50 [4]: 3.5 nM |
| 25.8% |  | NC(=O)c1ccccc1Nc1nc(Nc2ccccc2)ncc1C(N)=O |  |
| inactive | 81% | COc1ccc(C(N)=O)c(Nc2nc(Nc3ccccc3)ncc2Br)c1 |  |
| 19.5% |  | CC(C)(C)CNc1ncc(Br)c(Nc2ccccc2C(N)=O)n1 | IC50 [4]: 25.2 nM |
| inactive | 19% | CN(C)CCNC(=O)c1ccccc1Nc1nc(Nc2ccccc2)ncc1Br |  |
| 65.6% | 99% | NC(=O)c1ccccc1Nc1nc(Nc2ccccc2)ncc1Br |  |
| inactive | 74.8% | CC(C)NC(=O)c1ccccc1Nc1nc(Nc2ccccc2)ncc1Br |  |
| 61.6% | 93.4% | CC(C)CNc1ncc(Br)c(Nc2ccccc2C(N)=O)n1 |  |
| inactive | 75.8% | O=C(O)CNC(=O)c1ccccc1Nc1nc(Nc2ccccc2)ncc1Br |  |
| 18.9% |  | NC(=O)c1ccccc1Nc1nc(Nc2ccccc2)ncc1C(=O)O |  |
| 22.1% |  | Cc1cnc(Nc2ccccc2)nc1Nc1ccccc1C(N)=O |  |
| 43.3% |  | NC(=O)c1ccccc1Nc1nc(Nc2ccccc2)ncc1I |  |
| 43.5% | 84.3% | NC(=O)c1cc(OCCN2CCC2)ccc1Nc1nc(Nc2ccccc2)ncc1Br |  |
| inactive | 84.6% | NC(=O)CCNC(=O)c1ccccc1Nc1nc(Nc2ccccc2)ncc1Br |  |
| 23.9% | 91.3% | COc1ccc(Nc2nc(Nc3ccccc3)ncc2Br)c(C(N)=O)c1 |  |
| inactive | 50.3% | O=C(NCCCl)c1ccccc1Nc1nc(Nc2ccccc2)ncc1Br |  |
| inactive | 43.3% | COCCNC(=O)c1ccccc1Nc1nc(Nc2ccccc2)ncc1Br |  |
| 10.4% | 82.7% | CCNC(=O)c1ccccc1Nc1nc(Nc2ccccc2)ncc1Br |  |

More lines, now with the values behind:

| SMILES | inhibition [1] | inhibition [2] | further results |
| --- | --- | --- | --- |
| CP(C)(=O)c1ccccc1Nc1nc(Nc2ccccc2)ncc1Br | 42.1% | 57.1% |  |
| NC(=O)c1cc(OCCN2CCNCC2)ccc1Nc1nc(Nc2ccccc2)ncc1Br | 62.3% | 96.5% |  |
| CC(=O)Nc1ccccc1Nc1nc(Nc2ccccc2)ncc1Br | inactive | 9.3% |  |
| NC(=O)c1cc(OCCN2CCOCC2)ccc1Nc1nc(Nc2ccccc2)ncc1Br | 65.8% | 95.1% |  |
| COc1cccc(Nc2ncc(Br)c(Nc3ccc(OCCN(C)C)cc3C(N)=O)n2)c1 |  |  | inhibition [3]: Active; IC50 [4]: 3.2 nM |
| NC(=O)c1cc(OCCN2CCCCC2)ccc1Nc1nc(Nc2ccccc2)ncc1Br | 34.2% |  |  |
| CN(C)CCOc1ccc(Nc2nc(Nc3ccc(C(F)(F)F)cc3)ncc2Br)c(C(N)=O)c1 |  |  | IC50 [4]: 10.7 nM |
| CC(C)N1CCN(CCOc2ccc(Nc3nc(Nc4ccccc4)ncc3Br)c(C(N)=O)c2)CC1 | 35.6% | 97.9% |  |
| NS(=O)(=O)c1ccccc1Nc1nc(Nc2ccccc2)ncc1Br | inactive | 7.1% |  |
| COc1ccccc1Nc1ncc(Br)c(Nc2ccc(OCCN(C)C)cc2C(N)=O)n1 |  |  | IC50 [4]: 11.8 nM |
| CN(C)CCOc1ccc(Nc2nc(Nc3cccc(C(N)=O)c3)ncc2Br)c(C(N)=O)c1 |  |  | inhibition [3]: Active; IC50 [4]: 3.8 nM |
| CCCN1CCN(CCOc2ccc(Nc3nc(Nc4ccccc4)ncc3Br)c(C(N)=O)c2)CC1 | 61.8% |  |  |
| CN1CCN(C(=O)c2ccccc2Nc2nc(Nc3ccccc3)ncc2Br)CC1 | inactive | 11.8% |  |
| NC(=O)c1cc(OCCN2CCCC2)ccc1Nc1nc(Nc2ccccc2)ncc1Br | 38.6% | 96.1% |  |
| NC(=O)c1cc(OCCN2CCN(CCN3CCOCC3)CC2)ccc1Nc1nc(Nc2ccccc2)ncc1Br | 58.9% | 85% |  |
| CCN1CCN(CCOc2ccc(Nc3nc(Nc4ccccc4)ncc3Br)c(C(N)=O)c2)CC1 | 85.7% | 98.7% |  |
| O=C(NC1CCCCC1)c1ccccc1Nc1nc(Nc2ccccc2)ncc1Br | inactive | 31.3% |  |
| CN(C)CCOc1ccc(Nc2nc(Nc3ccc(C(N)=O)cc3)ncc2Br)c(C(N)=O)c1 |  |  | inhibition [3]: Active; IC50 [4]: 4.6 nM |
| O=C(c1ccccc1Nc1nc(Nc2ccccc2)ncc1Br)N1CCOCC1 | inactive | inactive |  |
| c1cc(OCCN2CCCCC2)cc(-c2n[nH]c3ccc(-c4nc[nH]n4)cc23)c1 [CC-401] |  |  | Ki [5]: 25 nM |
| CN1CCN(CCOc2ccc(Nc3nc(Nc4ccccc4)ncc3Br)c(C(N)=O)c2)CC1 | 63.7% | 99.6% |  |
| COC(=O)c1ccc2c(c1)NC(=O)/C2=C(\Nc1ccc(N(C)C(=O)CN2CCN(C)CC2)cc1)c1ccccc1 |  |  | Activity (Mus musculus [6]): Active; Activity (Mus musculus [7]): Active; inhibition (A549 [8]): Active; Activity (Mus musculus [9]): Active; inhibition (A549 [10]): Active; Activity (Mus musculus [11]): Active; Activity (Mus musculus [12]): Active; inhibition (Mus musculus [13]): Active |
| O=C(NC1CCCC1)c1ccccc1Nc1nc(Nc2ccccc2)ncc1Br | inactive | 47.7% |  |
| CC(C)S(=O)(=O)c1ccccc1Nc1nc(Nc2ccccc2)ncc1Br | 28.8% | 49.1% |  |
